The assay has as its system SARS-CoV-2 Omicron BA.5. In words: cytopathic effects (CPE) inhibition assay in Vero E6 cells. It counts as cell-based. The conditions noted are these: result in words.

As to `C[C@@H]1O[C@@H](O[C@H]2[C@H](Oc3cc(O)c4c(=O)cc(-c5ccc(O)cc5)oc4c3)O[C@H](CO)[C@@H](O)[C@@H]2O)[C@H](O)[C@H](O)[C@H]1O` [RHO, rhoifolin], the “inhibition of the SARS-CoV-2 Omicron BA.5 variant” value is “failed to inhibit”.

The values are drawn from PMC12640959, “Elucidation of anti-SARS-CoV-2 and anti-inflammatory bioactives in Qingyan Dropping Pills via integrated in silico screening and bioactivity validation” (Frontiers in Medicine, 2025).
